Test system: GA-primed murine splenocytes
Assay: Tolerance method for assessing process variability

Substance: glatiramer acetate [GA]
- AVG expression IRGB10 (probe ILMN_2534151): 9.691
- AVG expression LOC624610 (probe ILMN_2537948): 8.96
- AVG expression LOC666559 (probe ILMN_2540103): 10.7199
- AVG expression AUH (probe ILMN_2543417): 8.451
- AVG expression HIPK2 (probe ILMN_2545445): 7.332
- AVG expression GNG12 (probe ILMN_2546272): 9.731
- AVG expression 4930426D05RIK (probe ILMN_2548681): 7.1
- AVG expression A130093I21RIK (probe ILMN_2553041): 7.932
- AVG expression A630006E02RIK (probe ILMN_2560567): 9.937
- AVG expression NDR3 (probe ILMN_2571414): 6.289
- AVG expression GAD1 (probe ILMN_2573826): 6.891
- AVG expression B930094H08R1K (probe ILMN_2578341): 6.497
- AVG expression D530007E13RIK (probe ILMN_2581681): 8.386
- AVG expression IL8RA (probe ILMN_2588216): 6.682
- AVG expression PLTP (probe ILMN_2589401): 7.226
- AVG expression IL27RA (probe ILMN_2591156): 8.583
- AVG expression BC021614 (probe ILMN_2591342): 7.519
- AVG expression QPRT (probe ILMN_2591754): 7.245
- AVG expression genericLYRP1 (probe ILMN_2592486): 7.785
- AVG expression SCG5 (probe ILMN_2592953): 6.961
- AVG expression DOCK10 (probe ILMN_2593143): 11.3
- AVG expression IGTP (probe ILMN_2593554): 12.78
- AVG expression KCNK13 (probe ILMN_2593787): 6.48
- AVG expression NSDHL (probe ILMN_2594521): 8.078
- AVG expression NSDHL (probe ILMN_2594525): 8.365
- AVG expression LOC100046232 (probe ILMN_2595732): 11.55
- AVG expression RGS1 (probe ILMN_2596596): 8.683
- AVG expression SLC44A2 (probe ILMN_2599719): 11.36
- AVG expression MPO (probe ILMN_2600421): 7.594
- AVG expression OVGP1 (probe ILMN_2600928): 6.54
- AVG expression A130092J06RIK (probe ILMN_2601453): 10.81
- AVG expression CREM (probe ILMN_2602899): 7.714
- AVG expression KLF2 (probe ILMN_2604029): 11.34
- AVG expression RANBP10 (probe ILMN_2605453): 9.654
- AVG expression AI646023 (probe ILMN_2605858): 6.049
- AVG expression AGFG1 (probe ILMN_2606072): 9.007
- AVG expression PDLIM4 (probe ILMN_2606162): 9.727
- AVG expression ACOT7 (probe ILMN_2606180): 9.205
- AVG expression CMAH (probe ILMN_2606825): 7.634
- AVG expression CHI3L1 (probe ILMN_2609813): 9.339
- AVG expression IFT172 (probe ILMN_2611450): 8.856
- AVG expression SLC25A19 (probe ILMN_2611532): 9.008
- AVG expression SERPINB6B (probe ILMN_2611755): 8.188
- AVG expression ARHGEF18 (probe ILMN_2612125): 10.09
- AVG expression LSS (probe ILMN_2614161): 9.397
- AVG expression B3GNT8 (probe ILMN_2614889): 8.954
- AVG expression DPP4 (probe ILMN_2615096): 9.69
- AVG expression CHAC1 (probe ILMN_2617468): 8.051
- AVG expression C330008K14RIK (probe ILMN_2618148): 10.14
- AVG expression SLC2A6 (probe ILMN_2618918): 10.76
- AVG expression LGALS1 (probe ILMN_2619107): 10.71
- AVG expression ERAF (probe ILMN_2619200): 8.714
- AVG expression PRNP (probe ILMN_2619316): 9.719
- AVG expression ATF3 (probe ILMN_2619408): 6.791
- AVG expression RGS1 (probe ILMN_2625377): 9.769
- AVG expression ACSS1 (probe ILMN_2628174): 10.26
- AVG expression SOCS2 (probe ILMN_2628178): 9.548
- AVG expression ASAH3L (probe ILMN_2629112): 6.995
- AVG expression CPM (probe ILMN_2629191): 9.17
- AVG expression PPAP2B (probe ILMN_2630993): 7.507
- AVG expression TMEM71 (probe ILMN_2631610): 6.536
- AVG expression CTLA4 (probe ILMN_2631752): 8.62
- AVG expression ACOT7 (probe ILMN_2632264): 11.36
- AVG expression SOCS1 (probe ILMN_2634796): 7.681
- AVG expression IGH-VJ558 (probe ILMN_2635272): 13.22
- AVG expression AXUD1 (probe ILMN_2636403): 10.85
- AVG expression PLA2G12A (probe ILMN_2636536): 9.884
- AVG expression SLAMF7 (probe ILMN_2638491): 8.628
- AVG expression HSPD1 (probe ILMN_2639036): 9.439
- AVG expression AK2 (probe ILMN_2641360): 10.39
- AVG expression GTF2I (probe ILMN_2642462): 11.52
- AVG expression EMP1 (probe ILMN_2642913): 7.96
- AVG expression ASNS (probe ILMN_2643513): 9.742
- AVG expression THY1 (probe ILMN_2644350): 11.24
- AVG expression MVD (probe ILMN_2645275): 9.423
- AVG expression SAMSN1 (probe ILMN_2646322): 11.87
- AVG expression JUN (probe ILMN_2646625): 8.291
- AVG expression CENTD1 (probe ILMN_2646891): 10.77
- AVG expression SIGLECG (probe ILMN_2648454): 9.552
- AVG expression GPNMB (probe ILMN_2648669): 7.401
- AVG expression MAN2A2 (probe ILMN_2650255): 6.819
- AVG expression ARHGAP9 (probe ILMN_2650739): 9.141
- AVG expression SLC12A7 (probe ILMN_2650953): 6.744
- AVG expression genericK1 (probe ILMN_2651886): 11.36
- AVG expression LRG1 (probe ILMN_2652500): 6.12
- AVG expression IFI47 (probe ILMN_2652857): 11.72
- AVG expression SESN1 (probe ILMN_2654074): 10.45
- AVG expression MYO6 (probe ILMN_2656854): 8.468
- AVG expression IFITM3 (probe ILMN_2658501): 11.43
- AVG expression TG (probe ILMN_2658878): 7.479
- AVG expression DGKA (probe ILMN_2658961): 11.07
- AVG expression IL7R (probe ILMN_2659739): 6.443
- AVG expression ACOT7 (probe ILMN_2660182): 8.55
- AVG expression ST6GALNAC4 (probe ILMN_2660837): 8.481
- AVG expression SCML4 (probe ILMN_2661185): 8.584
- AVG expression RAB35 (probe ILMN_2662097): 11.43
- AVG expression LMNA (probe ILMN_2662387): 8.27
- AVG expression SLAMF9 (probe ILMN_2663249): 8.243
- AVG expression EPHX1 (probe ILMN_2664224): 9.837
- AVG expression 3110013H01RIK (probe ILMN_2664726): 8.045
- AVG expression RIN3 (probe ILMN_2665545): 9.015
- AVG expression HEMK1 (probe ILMN_2666272): 9.174
- AVG expression PRG4 (probe ILMN_2668333): 5.989
- AVG expression HP (probe ILMN_2668509): 7.287
- AVG expression HP (probe ILMN_2668510): 7.507
- AVG expression CTSA (probe ILMN_2669714): 9.205
- AVG expression KIF1B (probe ILMN_2670778): 8.422
- AVG expression PFKP (probe ILMN_2673233): 8.097
- AVG expression 2310047A01RIK (probe ILMN_2675922): 7.606
- AVG expression GRIFIN (probe ILMN_2676543): 6.233
- AVG expression RNF144A (probe ILMN_2678127): 7.59
- AVG expression MNS1 (probe ILMN_2678431): 8.22
- AVG expression DUSP10 (probe ILMN_2678724): 8.26
- AVG expression RASGRP2 (probe ILMN_2678726): 6.734
- AVG expression IL7R (probe ILMN_2680827): 8.445
- AVG expression BCL2 (probe ILMN_2682162): 8.675
- AVG expression NALP6 (probe ILMN_2684600): 6.205
- AVG expression HMHA1 (probe ILMN_2685023): 11.42
- AVG expression CCR5 (probe ILMN_2685392): 7.052
- AVG expression CCR5 (probe ILMN_2685393): 7.202
- AVG expression IFNG (probe ILMN_2685712): 11.16
- AVG expression PRM1 (probe ILMN_2687652): 6.849
- AVG expression MCOLN2 (probe ILMN_2689401): 7.5921
- AVG expression PKIB (probe ILMN_2690241): 7.745
- AVG expression JAKMIP1 (probe ILMN_2690460): 9.597
- AVG expression KLHL14 (probe ILMN_2691014): 6.305
- AVG expression 9330186A19RIK (probe ILMN_2692554): 6.749
- AVG expression TGM2 (probe ILMN_2692615): 8.055
- AVG expression ERO1LB (probe ILMN_2692960): 10.32
- AVG expression CCDC125 (probe ILMN_2693679): 7.065
- AVG expression PNPLA7 (probe ILMN_2695047): 7.637
- AVG expression KIFC2 (probe ILMN_2695158): 6.733
- AVG expression PHF11 (probe ILMN_2696491): 9.238
- AVG expression PHF11 (probe ILMN_2696492): 9.454
- AVG expression MSCP (probe ILMN_2696609): 8.264
- AVG expression SLC25A37 (probe ILMN_2696610): 8.278
- AVG expression CD3D (probe ILMN_2697415): 11.45
- AVG expression HIST1H3H (probe ILMN_2698519): 8.014
- AVG expression RGS10 (probe ILMN_2699531): 9.937
- AVG expression ITGAE (probe ILMN_2699898): 7.502
- AVG expression CCND2 (probe ILMN_2700168): 10.82
- AVG expression DENND5B (probe ILMN_2700354): 7.911
- AVG expression IBRDC3 (probe ILMN_2700689): 9.29
- AVG expression LGALS7 (probe ILMN_2703182): 6.931
- AVG expression STAC2 (probe ILMN_2703563): 6.876
- AVG expression FCRLA (probe ILMN_2703829): 11.55
- AVG expression LIMD2 (probe ILMN_2705878): 8.037
- AVG expression SYNGR2 (probe ILMN_2706231): 11.42
- AVG expression SYNGR2 (probe ILMN_2706232): 11.09
- AVG expression LOC100046608 (probe ILMN_2706514): 8.612
- AVG expression GPR83 (probe ILMN_2707941): 9.205
- AVG expression 5100A8 (probe ILMN_2710905): 12.62
- AVG expression IRGM1 (probe ILMN_2711172): 7.157
- AVG expression LOC100047619 (probe ILMN_2711948): 10.95
- AVG expression TIMP2 (probe ILMN_2712867): 6.749
- AVG expression CHI3L3 (probe ILMN_2712986): 7.589
- AVG expression SDC3 (probe ILMN_2715042): 9.146
- AVG expression SLC12A6 (probe ILMN_2716511): 9.952
- AVG expression MAPK11 (probe ILMN_2716622): 8.853
- AVG expression RGL1 (probe ILMN_2717176): 7.561
- AVG expression TCF7 (probe ILMN_2717975): 8.216
- AVG expression CISH (probe ILMN_2718330): 11.35
- AVG expression SLAMF1 (probe ILMN_2721571): 9.069
- AVG expression CD3G (probe ILMN_2722784): 10.75
- AVG expression CCR8 (probe ILMN_2724465): 6.962
- AVG expression MAPK12 (probe ILMN_2724570): 6.86
- AVG expression IL2 (probe ILMN_2725259): 7.49
- AVG expression NSDHL (probe ILMN_2725402): 8.035
- AVG expression CD9 (probe ILMN_2725414): 8.904
- AVG expression SYTL3 (probe ILMN_2725448): 7.03
- AVG expression SERPINA3G (probe ILMN_2725927): 13.9
- AVG expression EN2 (probe ILMN_2726471): 6.583
- AVG expression B4GALNT1 (probe ILMN_2728270): 10.26
- AVG expression 5830431A10R1K (probe ILMN_2729252): 7.881
- AVG expression HIST1H3D (probe ILMN_2729958): 9.844

— patent US20140193827A1 (TEVA PHARMACEUTICAL INDUSTRIES, LTD., priority 2013, published 2014)
